Measured values: ChEMBL document CHEMBL5518193, “Discovery of N-alkyl-N-benzyl thiazoles as novel TRPC antagonists for the treatment of glioblastoma multiforme” (Eur J Med Chem, 2024)

How the values were obtained:
[1] = biological target: T1, Short transient receptor potential channel 6 (Homo sapiens, UniProt Q9Y210); test: Antagonist activity at TRPC6 (unknown origin) assessed as inhibition of channel activity
T1 sequence (Q9Y210 whole entry): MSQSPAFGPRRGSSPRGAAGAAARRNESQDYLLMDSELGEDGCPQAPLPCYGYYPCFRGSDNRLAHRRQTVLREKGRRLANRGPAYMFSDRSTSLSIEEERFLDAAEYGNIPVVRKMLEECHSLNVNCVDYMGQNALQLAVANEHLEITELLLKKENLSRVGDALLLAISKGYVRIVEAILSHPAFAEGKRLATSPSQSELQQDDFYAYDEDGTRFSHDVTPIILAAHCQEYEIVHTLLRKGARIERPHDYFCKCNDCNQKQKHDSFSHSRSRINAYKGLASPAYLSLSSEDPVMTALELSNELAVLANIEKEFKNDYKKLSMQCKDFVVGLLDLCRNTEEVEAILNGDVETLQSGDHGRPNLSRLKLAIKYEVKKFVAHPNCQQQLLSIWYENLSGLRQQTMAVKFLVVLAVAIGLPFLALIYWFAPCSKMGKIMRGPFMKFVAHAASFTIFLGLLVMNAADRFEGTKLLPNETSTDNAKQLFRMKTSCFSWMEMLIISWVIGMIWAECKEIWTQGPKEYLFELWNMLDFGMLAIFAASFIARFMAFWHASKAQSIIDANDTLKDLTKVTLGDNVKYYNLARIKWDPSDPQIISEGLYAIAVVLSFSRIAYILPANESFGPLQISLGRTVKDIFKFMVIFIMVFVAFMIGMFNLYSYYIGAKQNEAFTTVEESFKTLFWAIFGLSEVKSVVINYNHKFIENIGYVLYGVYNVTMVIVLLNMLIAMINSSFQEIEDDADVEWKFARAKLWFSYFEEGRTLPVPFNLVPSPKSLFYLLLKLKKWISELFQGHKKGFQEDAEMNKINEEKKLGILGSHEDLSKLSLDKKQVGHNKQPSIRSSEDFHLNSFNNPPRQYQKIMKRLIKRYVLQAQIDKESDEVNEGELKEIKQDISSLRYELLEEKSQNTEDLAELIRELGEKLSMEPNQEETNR

[2] = biological target: T2, Short transient receptor potential channel 5 (Homo sapiens, UniProt Q9UL62); test: Antagonist activity at TRPC5 (unknown origin) assessed as inhibition of channel activity
T2 sequence (Q9UL62 whole entry): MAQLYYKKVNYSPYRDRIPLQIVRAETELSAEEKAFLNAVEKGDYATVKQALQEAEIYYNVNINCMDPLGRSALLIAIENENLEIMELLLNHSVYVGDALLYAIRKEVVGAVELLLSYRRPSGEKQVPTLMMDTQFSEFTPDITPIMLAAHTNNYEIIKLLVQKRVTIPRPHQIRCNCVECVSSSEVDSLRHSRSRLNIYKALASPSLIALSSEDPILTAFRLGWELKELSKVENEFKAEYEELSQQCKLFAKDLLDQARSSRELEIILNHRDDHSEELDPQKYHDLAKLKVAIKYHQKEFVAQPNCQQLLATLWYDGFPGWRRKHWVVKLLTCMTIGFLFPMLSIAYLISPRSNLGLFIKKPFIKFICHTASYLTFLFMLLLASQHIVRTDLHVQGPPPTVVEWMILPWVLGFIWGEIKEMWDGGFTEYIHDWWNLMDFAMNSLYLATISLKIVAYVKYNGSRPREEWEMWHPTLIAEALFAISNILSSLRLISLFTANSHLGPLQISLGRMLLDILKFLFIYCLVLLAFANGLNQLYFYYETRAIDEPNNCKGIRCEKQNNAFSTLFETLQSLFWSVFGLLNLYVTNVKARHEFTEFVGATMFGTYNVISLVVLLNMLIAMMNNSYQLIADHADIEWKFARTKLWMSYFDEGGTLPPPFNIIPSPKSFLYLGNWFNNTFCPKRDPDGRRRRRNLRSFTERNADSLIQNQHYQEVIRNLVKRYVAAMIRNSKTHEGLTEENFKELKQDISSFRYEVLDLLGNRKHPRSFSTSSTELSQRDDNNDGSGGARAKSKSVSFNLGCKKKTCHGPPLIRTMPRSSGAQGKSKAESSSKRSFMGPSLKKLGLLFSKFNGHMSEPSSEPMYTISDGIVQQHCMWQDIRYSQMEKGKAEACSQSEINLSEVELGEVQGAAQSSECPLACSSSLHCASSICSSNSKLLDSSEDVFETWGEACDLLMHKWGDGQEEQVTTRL

IC50 [1]: 7.2 µM
IC50 [2]: 10.6 µM
SMILES: O=C1O/C(=C/Br)CCC1c1cccc2ccccc12 (configuration not stated) [BROMOENOL LACTONE]
